{"source": "patent US11266640B2", "about": "“Polycyclic compound acting as IDO inhibitor and/or IDO-HDAC dual inhibitor” (Hangzhou Innogate Pharma Co., Ltd., priority 2017, dated 2022)"}
{"target": "T1, IDO (Homo sapiens, UniProt P14902)", "T1 construct": "endogenous in cells; host or cells: HeLa cells treated with IFNγ", "T1 sequence (P14902 whole entry)": "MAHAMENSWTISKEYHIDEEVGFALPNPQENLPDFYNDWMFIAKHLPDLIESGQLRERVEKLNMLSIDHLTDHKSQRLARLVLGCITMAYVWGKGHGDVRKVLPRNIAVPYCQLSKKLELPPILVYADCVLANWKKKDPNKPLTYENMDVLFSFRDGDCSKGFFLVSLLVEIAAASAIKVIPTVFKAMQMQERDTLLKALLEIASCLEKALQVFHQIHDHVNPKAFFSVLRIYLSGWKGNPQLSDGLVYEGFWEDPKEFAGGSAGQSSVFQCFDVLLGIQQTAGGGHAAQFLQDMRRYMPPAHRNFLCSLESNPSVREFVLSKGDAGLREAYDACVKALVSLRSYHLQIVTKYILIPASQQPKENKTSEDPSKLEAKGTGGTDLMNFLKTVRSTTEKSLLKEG", "test": "Hela cell-based IDO inhibitory activity test (IFNγ added)", "conditions": "Hela cells with IFNγ, 48 hours incubation, OD 480 nm", "method": "2. Hela Cell-Based IDO Inhibitory Activity Test Method\nThe first step: cell plating. Prepare complete medium and mix well. Cell lines that are in good growth state are selected. Remove the cell culture flask from the incubator and check the cell name, media type and cell generation number on the bottle. The medium was discarded, digested with trypsin, and after digestion, the cells were neutralized with serum-containing medium, and the cells were blown to cause the cells to fall off. Pipette the cell suspension into a centrifuge tube and centrifuge at a speed of 800-1000 for 3-5 minutes. Aspirate the cell supernatant from the centrifuge tube. Add an appropriate volume of medium to the tube and gently blister to resuspend the cells. Count using a Vi-Cell XR cytometer. Adjust the cell suspension to the appropriate concentration. The cell suspension was added to a white-well 96-well plate at 80 μl/well according to the schematic below. The second step: preparation and addition of the compound. Compounds were formulated in DMSO at 600 μM and the compounds were diluted in DMSO according to a multiple of the following table to give 6 concentration gradients of the compound. The 200× compound prepared in DMSO was formulated into a 10× dilution solution in proportion to the corresponding cell culture medium. After 24 hours of cell seeding, 10 μL of 10× corresponding compound dilution and 10 μL of 10×IFNγ were added to each well. Incubate for 48 hours in a 37° C. incubator. The third step: detection and analysis. Cell morphology was observed under an inverted microscope. 80 μL of the supernatant was added to a 3894 plate, 10 μL of 6.1 N trichloroacetic acid was added to each well, shaken for 2 minutes, and placed in a 50-degree incubator for 30 minutes. Centrifuge, 2500 rpm for 10 minutes.\nTake 70 μL of the supernatant and transfer to a 3635 UV plate, add 70 μL of the reaction solution, and shake for 2 minutes to make the reaction uniform. Use EnSpire (PE) to detect data with an OD of 480 nm. The cell culture plate 3903 was allowed to stand at room temperature for 30 minutes. 100 μL/well of the cell activity detecting reagent was added to the culture plate. Mix on a shaker for 2 minutes to induce cell lysis. The 96-well plate was allowed to stand at room temperature for 10 minutes to stabilize the luminescence signal. Paste the white base film on the bottom of the plate and tested with Flexstation3 plate (the relevant setting is: Illumination, integration time 500 ms). Record the experimental results obtained from the analysis.\nThe IC50 value is expressed in the following manner: […]", "units": {"IC50": "nM"}}
{"smiles": "C#Cc1ccc(NC(=O)C(C)[C@H]2C[C@H]3C[C@@H](c4ccnc5ccc(F)cc45)C[C@H]3C2)cn1", "note": "(stereo partly shown) [Compound 37]", "IC50": "≤ 5"}
{"smiles": "O=C(Nc1ccc(Cl)cn1)C1C[C@@H]2C[C@H](c3ccnc4ccc(F)cc34)C[C@@H]2C1", "note": "(single isomer, unassigned) [Compound 107]", "IC50": "> 100"}
{"smiles": "CC(C(=O)Nc1ccc(Cl)cc1)N1C[C@H]2C[C@@H](c3ccnc4ccc(F)cc34)C[C@H]2C1", "note": "(stereo partly shown) [Compound 44]", "IC50": "≤ 5"}
{"smiles": "CC(C(=O)Nc1ccc(C#CC(C)(C)O)cn1)[C@@H]1C[C@H]2C[C@@H](c3ccnc4ccc(F)cc34)C[C@H]2C1", "note": "(stereo partly shown) [Compound 78]", "IC50": "25 to 100"}
{"smiles": "N#Cc1ccc(NC(=O)C[C@@H]2C[C@@H]3CC(c4ccnc5ccc(F)cc45)=C[C@@H]3C2)cn1", "note": "(relative stereo) [Compound 101]", "IC50": "5 to 25"}
{"smiles": "O=C(CN1C[C@H]2C[C@@H](c3ccnc4ccc(F)cc34)C[C@H]2C1)Nc1ccc(Cl)cc1", "note": "[Compound 46]", "IC50": "25 to 100"}
{"smiles": "O=C(Nc1ccc(Cl)cc1)C1CC12CCC(c1ccnc3ccc(F)cc13)CC2", "note": "(stereo not shown) [Compound 56]", "IC50": "5 to 25"}
{"smiles": "O=C(C[C@H]1C[C@H]2CC(c3ccnc4ccc(F)cc34)C[C@H]2C1)Nc1ccc2[nH]ncc2c1", "note": "(stereo partly shown) [Compound 14]", "IC50": "> 100"}
{"smiles": "C#Cc1ccc(NC(=O)C[C@@H]2C[C@@H]3C[C@H](c4ccnc5ccc(F)cc45)C[C@@H]3C2)cn1", "note": "[Compound 66]", "IC50": "≤ 5"}
{"smiles": "N#Cc1ccc(NC(=O)C[C@@H]2C[C@@H]3C[C@H](c4ccnc5ccc(F)cc45)C[C@@H]3C2)cn1", "note": "[Compound 102]", "IC50": "≤ 5"}
{"smiles": "N#Cc1ccc(NC(=O)C2([C@H]3C[C@H]4C[C@@H](c5ccnc6ccc(F)cc56)C[C@H]4C3)CC2)nc1", "note": "[Compound 98]", "IC50": "≤ 5"}
{"smiles": "CC(C(=O)Nc1ccc(-c2cnn(C3CC3)c2)nc1)[C@H]1C[C@H]2C[C@@H](c3ccnc4ccc(F)cc34)C[C@H]2C1", "note": "(stereo partly shown) [Compound 32]", "IC50": "> 100"}
{"smiles": "O=C(C[C@@H]1C[C@@H]2CC(c3ccnc4ccc(F)cc34)=C[C@@H]2C1)Nc1ccc(Cl)cn1", "note": "[Compound 61]", "IC50": "5 to 25"}
{"smiles": "O=C(C[C@@]1(F)C[C@H]2C[C@@H](c3ccnc4ccc(F)cc34)C[C@H]2C1)Nc1ccc(Cl)cc1", "note": "[Compound 59]", "IC50": "5 to 25"}
{"smiles": "C#Cc1ccc(NC(=O)C[C@@H]2C[C@H]3CC(c4ccnc5ccc(F)cc45)C[C@H]3C2)cn1", "note": "(stereo partly shown) [Compound 24]", "IC50": "≤ 5"}
{"smiles": "CC(C(=O)Nc1ccc(Cl)cc1)[C@H]1C[C@]2(C)C[C@H](c3ccnc4ccc(F)cc34)C[C@]2(C)C1", "note": "(stereo partly shown) [Compound 41]", "IC50": "5 to 25"}
{"smiles": "CC(C(=O)Nc1ccc(Cl)nc1)[C@H]1C[C@]2(C)C[C@H](c3ccnc4ccc(F)cc34)C[C@]2(C)C1", "note": "(stereo partly shown) [Compound 43]", "IC50": "25 to 100"}
{"smiles": "CC(C(=O)Nc1ccc(F)c(Br)c1)[C@H]1C[C@H]2C[C@@H](c3ccnc4ccc(F)cc34)C[C@H]2C1", "note": "(stereo partly shown) [Compound 33]", "IC50": "25 to 100"}
{"smiles": "N#Cc1ccc(NC(=O)C[C@H]2C[C@@H]3C[C@H](c4ccnc5ccc(F)cc45)C[C@@H]3C2)cn1", "note": "[Compound 71]", "IC50": "5 to 25"}
{"smiles": "O=C(Nc1ccc(Cl)cn1)/C(F)=C1/C[C@@H]2C[C@H](c3ccnc4ccc(F)cc34)C[C@@H]2C1", "note": "[Compound 105]", "IC50": "> 100"}
{"smiles": "CC(C(=O)Nc1ccc(C(F)(F)F)cn1)[C@H]1C[C@H]2C[C@@H](c3ccnc4ccc(F)cc34)C[C@H]2C1", "note": "(stereo partly shown) [Compound 81]", "IC50": "5 to 25"}
{"smiles": "CC(C(=O)Nc1ccc(O)nc1)[C@H]1C[C@H]2C[C@@H](c3ccnc4ccc(F)cc34)C[C@H]2C1", "note": "(stereo partly shown) [Compound 28]", "IC50": "> 100"}
{"smiles": "O=C(Nc1ccc(Cl)cn1)C1C[C@@H]2C[C@H](c3ccnc4ccc(F)cc34)C[C@@H]2C1", "note": "(single isomer, unassigned) [Compound 108]", "IC50": "5 to 25"}
{"smiles": "O=C(C[C@H]1C[C@@H]2CC(c3ccncc3F)=C[C@@H]2C1)Nc1ccc(Cl)cc1", "note": "[Compound 54]", "IC50": "> 100"}
{"smiles": "COC(=O)c1ccc(NC(=O)C(C)[C@H]2C[C@H]3C[C@@H](c4ccnc5ccc(F)cc45)C[C@H]3C2)cc1", "note": "(stereo partly shown) [Compound 8]", "IC50": "5 to 25"}
{"smiles": "O=C(C[C@@H]1C[C@@H]2C[C@@]3(c4ccnc5ccc(F)cc45)O[C@H]3[C@@H]2C1)Nc1ccc(Cl)cc1", "note": "[Compound 49]", "IC50": "5 to 25"}
{"smiles": "CC(C)(C(=O)Nc1ccc(C#N)nc1)[C@H]1C[C@H]2C[C@@H](c3ccnc4ccc(F)cc34)C[C@H]2C1", "note": "[Compound 89]", "IC50": "≤ 5"}
{"smiles": "O=C(C[C@@H]1C[C@@H]2CC(c3ccncc3F)=C[C@@H]2C1)Nc1ccc(Cl)cc1", "note": "[Compound 53]", "IC50": "> 100"}
{"smiles": "C#Cc1ccc(NC(=O)C[C@H]2C[C@@H]3CC(c4ccnc5ccc(F)cc45)=C[C@@H]3C2)nc1", "note": "[Compound 65]", "IC50": "5 to 25"}
{"smiles": "CC(C)(C(=O)Nc1ccc(Cl)cc1)[C@H]1C[C@H]2C[C@@H](c3ccnc4ccc(F)cc34)C[C@H]2C1", "note": "[Compound 60]", "IC50": "≤ 5"}
{"smiles": "CC#Cc1ccc(NC(=O)C(C)(C)[C@H]2C[C@H]3C[C@@H](c4ccnc5ccc(F)cc45)C[C@H]3C2)cn1", "note": "[Compound 91]", "IC50": "≤ 5"}
{"smiles": "C#Cc1ccc(NC(=O)C[C@@H]2C[C@H]3CC(c4ccnc5ccc(F)cc45)C[C@H]3C2)nc1", "note": "(stereo partly shown) [Compound 25]", "IC50": "≤ 5"}
{"smiles": "C#Cc1ccc(NC(=O)C[C@@H]2C[C@@H]3CC(c4ccnc5ccc(F)cc45)=C[C@@H]3C2)nc1", "note": "[Compound 63]", "IC50": "≤ 5"}
{"smiles": "O=C(Nc1ccc(Cl)cc1)O[C@@H]1C[C@@H]2C[C@H](c3ccnc4ccc(F)cc34)C[C@@H]2C1", "note": "[Compound 106]", "IC50": "> 100"}
{"smiles": "CC#Cc1ccc(NC(=O)C(C)[C@H]2C[C@H]3C[C@@H](c4ccnc5ccc(F)cc45)C[C@H]3C2)nc1", "note": "(stereo partly shown) [Compound 82]", "IC50": "> 100"}
{"smiles": "O=C(C[C@]1(O)C[C@H]2C[C@@H](c3ccnc4ccc(F)cc34)C[C@H]2C1)Nc1ccc(Cl)cc1", "note": "[Compound 58]", "IC50": "5 to 25"}
{"smiles": "CC(C(=O)Nc1cncc(Cl)c1)[C@H]1C[C@H]2C[C@@H](c3ccnc4ccc(F)cc34)C[C@H]2C1", "note": "(stereo partly shown) [Compound 35]", "IC50": "5 to 25"}
{"smiles": "O=C(C[C@@H]1C[C@@H]2C[C@H](c3ccnc4ccc(F)cc34)C[C@@H]2C1)Nc1ccc2c(c1)OCC1COCCN21", "note": "(stereo partly shown) [Compound 13]", "IC50": "> 100"}
{"smiles": "C#Cc1ccc(NC(=O)[C@H](C)[C@@H]2C[C@H]3CC(c4ccnc5ccc(F)cc45)C[C@H]3C2)nc1", "note": "(stereo partly shown) [Compound 75]", "IC50": "5 to 25"}
{"smiles": "CC(C(=O)Nc1nncs1)[C@H]1C[C@H]2C[C@@H](c3ccnc4ccc(F)cc34)C[C@H]2C1", "note": "(stereo partly shown) [Compound 31]", "IC50": "> 100"}
{"smiles": "Cn1nc(C2=C[C@@H]3C[C@H](CC(=O)Nc4ccc(Cl)cc4)C[C@@H]3C2)c2ccccc21", "note": "[Compound 55]", "IC50": "> 100"}
{"smiles": "C#Cc1ccc(NC(=O)C[C@H]2C[C@H]3CC(c4ccnc5ccc(F)cc45)C[C@H]3C2)cc1", "note": "(stereo partly shown) [Compound 19]", "IC50": "≤ 5"}
{"smiles": "CC(C)(C(=O)Nc1ccc(Cl)cn1)N1C[C@H]2C[C@@H](c3ccnc4ccc(F)cc34)C[C@H]2C1", "note": "[Compound 100]", "IC50": "> 100"}
{"smiles": "C#Cc1ccc(NC(=O)C[C@@H]2C[C@H]3CC(c4ccnc5ccc(F)cc45)C[C@H]3C2)cc1", "note": "(stereo partly shown) [Compound 20]", "IC50": "≤ 5"}
{"smiles": "CC(C(=O)Nc1cnc(N)nc1)[C@H]1C[C@H]2C[C@@H](c3ccnc4ccc(F)cc34)C[C@H]2C1", "note": "(stereo partly shown) [Compound 30]", "IC50": "> 100"}
{"smiles": "Cn1ncc2cc(NC(=O)C[C@H]3C[C@H]4CC(c5ccnc6ccc(F)cc56)C[C@H]4C3)ccc21", "note": "(stereo partly shown) [Compound 15]", "IC50": "> 100"}
{"smiles": "O=C(C[C@H]1C[C@H]2CC(c3ccnc4ccc(F)cc34)C[C@H]2C1)Nc1ccc(Cl)cn1", "note": "(stereo partly shown) [Compound 17]", "IC50": "5 to 25"}
{"smiles": "O=C(Nc1ccc(Cl)cc1)C(=O)N1C[C@H]2C[C@@H](c3ccnc4ccc(F)cc34)C[C@H]2C1", "note": "[Compound 47]", "IC50": "25 to 100"}
{"smiles": "N#Cc1ccc(NC(=O)C[C@H]2C[C@@H]3C[C@H](c4ccnc5ccc(F)cc45)C[C@@H]3C2)nc1", "note": "[Compound 70]", "IC50": "≤ 5"}
{"smiles": "O=C(C[C@@H]1C[C@@H]2C[C@@H](N3CCCc4ccccc43)C[C@@H]2C1)Nc1ccc(Cl)cc1", "note": "[Compound 52]", "IC50": "> 100"}
{"smiles": "CC#Cc1ccc(NC(=O)C(C)[C@H]2C[C@H]3C[C@@H](c4ccnc5ccc(F)cc45)C[C@H]3C2)cn1", "note": "(stereo partly shown) [Compound 83]", "IC50": "> 100"}
{"smiles": "CC(C(=O)Nc1ccc(C#N)cc1)[C@H]1C[C@H]2C[C@@H](c3ccnc4ccc(F)cc34)C[C@H]2C1", "note": "(stereo partly shown) [Compound 36]", "IC50": "≤ 5"}
{"smiles": "C#Cc1ccc(NC(=O)C2([C@H]3C[C@H]4C[C@@H](c5ccnc6ccc(F)cc56)C[C@H]4C3)CC2)cn1", "note": "[Compound 97]", "IC50": "5 to 25"}
{"smiles": "C[C@@H](C(=O)Nc1ccc(Cl)cn1)[C@H]1C[C@H]2CC(c3ccnc4ccc(F)cc34)C[C@H]2C1", "note": "(single isomer, unassigned) [Compound 26A]", "IC50": "≤ 5"}
{"smiles": "N#Cc1ccc(NC(=O)C[C@@H]2C[C@@H]3CC(c4ccnc5ccc(F)cc45)=C[C@@H]3C2)nc1", "note": "(racemic) [Compound 69]", "IC50": "≤ 5"}
